Measurements: paper PMC8113149 (Bioorganic & medicinal chemistry letters, 2021)
Entries after “also recorded” stand apart in the source; their conditions may differ. Where two headings read alike, the source gives them in different places.

Columns and labels:
tubulin [1] = assay: Inhibition of [3H]colchicine binding to tubulin
cellular microtubules [2] = conditions: read-out: Cellular microtubule depolymerization EC50; lead compounds; cited from earlier work
tubulin [3] = conditions: lead compounds, cited from earlier work
cellular microtubules [4] = assay: Cellular microtubule depolymerization; format: cell-based; conditions: 5-methyl vs 5-desmethyl compound
MDA-MB-435 = assay: Antiproliferative effects in MDA-MB-435; format: cell-based, human; conditions: 5-methyl vs 5-desmethyl compound
tubulin [5] = assay: Inhibition of tubulin assembly; format: biochemical
[6] = tested on: MCF-7 TUBB3 (βIII-tubulin overexpressing) tumors; assay: MCF-7 TUBB3 orthotopic xenograft; format: in vivo, mouse; conditions: athymic female mice; 9 at 30 mg/kg two times weekly, paclitaxel 10 mg/kg/week
NCI 60 cell line panel = assay: NCI-60 panel, overall; format: cell-based; conditions: Homo sapiens, read-out: GI50 against most/many tumor cell lines
[7] = Animal weight and MTD in xenograft study

SMILES: COc1ccc(/C=C\c2cc(OC)c(OC)c(OC)c2)cc1O [CA-4, combretastatin A-4]
- Inhibition of colchicine binding, % inhibition ± SD (tubulin [1]; 0.5 μM inhibitor): 84 ± 3%
- EC50 (cellular microtubules [2]): 9.8 nM
- Inhibition of colchicine binding, % inhibition ± SD (tubulin [3]; 0.5 μM inhibitor): 84 ± 3%

SMILES: COc1ccc(Nc2nc(C)nc3cc[nH]c23)cc1 [Compound 1]
- EC50 (cellular microtubules [2]): > 10000 nM
- Inhibition of colchicine binding, % inhibition ± SD (tubulin [3]; 5 μM inhibitor): 0%

SMILES: COc1ccc(N(C)c2nc(C)nc3cc[nH]c23)cc1 [Compound 2]
- EC50 (cellular microtubules [2]): 1200 nM

SMILES: COc1ccc(N(C)c2nc(C)nc3ccn(C)c23)cc1 [Compound 3]
- Fold more potent in cellular microtubule depolymerization than 5-desmethyl 2 (cellular microtubules [4]): 160 fold
- Fold more potent in antiproliferative effects than 5-desmethyl 2 (MDA-MB-435): 22 fold
- EC50 (cellular microtubules [2]): 7.4 nM

SMILES: COc1ccc(N(C)c2nc(C)nc3c(Cc4ccccc4)cn(C)c23)cc1 [Compound 5]
- Fold more potent in inhibiting tubulin assembly than 5-desmethyl compound (tubulin [5]; 5 vs 4, 7 vs 6): 43 fold

SMILES: COc1ccc(N(C)c2nc(Cl)nc3cnn(C)c23)cc1 [Compound 9]
- Primary tumor growth / tumor volume [6]: decreased primary tumor growth
- GI50 (NCI 60 cell line panel): ≤ 10 nM
- Animal weight change ([7]; percent weight change at day 41 over starting weight): no significant weight loss

SMILES: COc1ccc(Nc2nc(Cl)nc3cnn(C)c23)cc1 [Compound 10]
- Inhibition of [3H]colchicine binding, in words (tubulin [1]): completely inactive
- Inhibition of tubulin assembly, in words (tubulin [5]): did not inhibit tubulin assembly; also recorded: no effect
- IC50 (tubulin [5]; read-out: Inhibition of tubulin assembly IC50 ± SD): > 20000 nM

SMILES: CSc1ccc(N(C)c2nc(Cl)nc3cnn(C)c23)cc1 [Compound 15]
- Inhibition of [3H]colchicine binding, in words (tubulin [1]): equipotent to 9

SMILES: CC(=O)O[C@H]1C(=O)[C@@]2(C)[C@H]([C@H](OC(=O)c3ccccc3)[C@]3(O)C[C@H](OC(=O)[C@H](O)[C@@H](NC(=O)c4ccccc4)c4ccccc4)C(C)=C1C3(C)C)[C@]1(OC(C)=O)CO[C@@H]1C[C@@H]2O [Paclitaxel, paclitaxel]
- Maximally tolerated dose (MTD) ([7]; mice): 10 mg/kg/week
